One data set is described as follows: Solubility in water. The class given is physicochemical.
The test system of data set [1] is skull cells (lactate production). The data set can be described thus: cells. Format: cell-based, Wistar rats. On the procedure: (§1) Cellular culture: the cells are cultured according to the method described by Fast et al, (Biochem. J. 172, 97-107 (1978)). By way of summary, the skulls removed from Wistar rats, one day old, are digested with collagenase. The cells set free are placed on a plate with concentration of 200,000 cells per cc of medium in disks "clusters" suitable for culture, the plates having 24 wells of 1.6 cm in diameter containing 0.5 cc of medium. The cells are cultivated in the essential minimum medium containing 10% of foetal calf serum in an atmosphere of 5% CO2 at 37° up to the eighth day. The bisphosphonates are added on the first day up to the end of the experiment. The medium is changed on the first, fourth and seventh day.
On the seventh day, the medium is changed and the cells are incubated for 16 hours. The lactate produced during this period is measured in an extract in HClO4 of the medium using lactatodehydrogenase.

The subject of data set [2] is bone reabsorption (metaphyseal bone density). The data set can be described thus: Metaphyseal bone density / inhibition of bone reabsorption in rats treated for 7 days. The class given is in vivo. The following applies: for metaphysical density: 7 days, rats.
Data set [3] concerns inhibition of the bone reabsorption.
In data set [4] the test system is patients with widespread neoplastic osteolysis. The following applies: six patients, 4 mg/day. On the procedure:
(§2) The substance ABDP, aminobutanediphosphonate has been used for venous infusion, 0.5-25 mg/day dissolved in 500 cc of 5% glucose solution in the following conditions: […]

Data set [5] deals with patients with Paget's disease. Here is the method: as §2
The next data set concerns skull cells. The data set can be described thus: cells. The class given is cell-based, Wistar rats. Here is the method: as §1
The cells are counted with a Coulter counter after they have been set free from the disks by digestion with a mixture of collagenase and trypsin.

Data set [6] relates to patients with primary hyperparathyroidism. On the procedure: The substance ABDP, aminobutanediphosphonate has been used for venous infusion, 0.5-25 mg/day dissolved in 500 cc of 5% glucose solution in the following conditions:
Eight individuals having different degrees of calcemia varying to the extent of 17-11 mg%, were treated.

For data set [7], the system named is patients with tumoral osteolysis.
For data set [8] the following is noted: 37° C., two days, control 29, prior to incubation 114.7. Here is the method: A model system is used to evaluate the ability of the phosphonates to inhibit the formation of crystals in inorganic solutions. Three solutions are prepared according to Fleisch.
The pH is brought to 7.4 by means of potassium hydroxide. The concentration of Ca^++ was 6.7 mg%, a level similar to the calcium in blood which has been subjected to untrafiltration and the concentration of the inorganic phosphate Pi give a product Ca^++ ×Pi=80. The solution was analyzed for Ca^++ and Pi and was distributed in Erlenmeyer flasks 12 cc each. The flasks were divided in groups as follows:
and then they are incubated under stirring at 37° C. for two days.
At the end of incubation, the solutions are passed through "millipore filters" for the purpose of retaining the ctystals which are formed during the incubation; the filtrate then is analyzed for Ca^++ and Pi. The results are also reported in Table 2 as the product of Ca^++ x Pi in the solution at the end of the experiment.

In data set [9] the test system is bone reabsorption and mineralization (tibia, trabecular metaphysis). Format: in vivo, Wistar rats. Here is the method:
Groups of five Wistar rats of weight 180-200 grams are treated for a period of seven days with 0.1, 1.0 and 10 mg of P/kg of the following biphosphonic acids:
The animals kept as a control were administered the solvent with NaCl. All the treatments were carried out by the subcutaneous route. […] The animals were fed with Altromine 1314 containing 1.1 g/100 g P and 250 IU/100 g of vitamin D3. On the eighth day, the animals were killed and the tibia was removed and fixed in 50% ethanol. The tibiae were then dehydrated in increasing concentration of ethanol and allowed to soak in methylmethacrylate after the addition of Plastoid N. Frontal sections were removed and cut to a thickness of 70-80 μm and then the sections were submitted to microradiography. This procedure permitted to evaluate the density of the mineral in the trabecular metaphysis according to the method of Shenk et al., Calc. Tiss. Res. 11, 196-214, 1973).
One animal per group has been evaluated.

The next data set relates to injection sites / skin. The data set can be described thus: Necrosis at the injection sites in rats (local skin toxicity). From the text: The symbol "x" represents a conventional score, that is "x" meand slight necrosis, "xx" means severe necrosis, "xxx" means very severe necrosis.
The nature of the next data set: in vivo. The following applies: mouse, Swiss mice, read-out: DL50 (the source's name). Here is the method: For this study Swiss mice, both male and female, have been utilized: during the experiment, the animals are fed according to the method with Altromin in the form of tablets. For the oral and intraperitoneal administration, there are used 5% gum arabic solutions while saline solutions of pH 4 are used for the intravenous injections.
The preliminary values of DL50 are calculated according to a graphic method.

Setting [10] is: Rattus norvegicus, 16 h, read-out: Effect on the production of lactate ± S.E.M.
Setting [11] is: Rattus norvegicus, read-out: Effect on the cellular number ± S.E.M.
[12] abbreviates: two patients, 50 mg, three days.

Entries after “also recorded” stand apart in the source; their conditions may differ. Read-outs that look alike come from different tables or passages of the source.

As to `O=P(O)(O)C(F)(F)P(=O)(O)O` [Example 8, lysine difluoromethanebiphosphonate], the solubility in water entry in the data set “Solubility in water” is “very soluble in water”.

As to `O=P(O)(O)C(F)(F)P(=O)(O)O` [Example 6, trisodium difluoromethanebiphosphonate], the solubility in water entry in the data set “Solubility in water” is “soluble in water”.

Take `NCCCC(O)(P(=O)(O)O)P(=O)(O)O` [AHBU BP, 4-amino-1-hydroxybutan-1,1-biphosphonic acid]: in data set [1] (setting [10]), the activity at 2.5 µM turned out to be 88 ± 1.5%, the activity at 25 µM is 79.6 ± 4.1% and the activity at 250 µM turned out to be 180 ± 18.6%. In addition, the “times superior activity versus AHPrBP (inhibition of bone reabsorption)” value in data set [2] (in vivo in rats) was “about 100 times”. Also, the “times more active than Cl2 MDP (inhibition of the bone reabsorption)” value in data set [3] (clinical, overall conclusion) is recorded as 100-300 times. Besides, in data set [3] (detailed observations in comparison not available yet), the “activity on the immunity system” value is on record as “the activity on the immunity system appears to be peculiar to ABDP”. Moreover, the “days of treatment after which painful bone symptoms decreased” value in [4] lay within 5 to 8 days. Further, the calciuria entry in data set [4] (two weeks) is “normalization of calciuria”. For the same compound, the decrease of hydroxyprolinuria in data set [4] (in five days) is listed as 50-80%. Moreover, the “hydroxyprolinuria and alkaline phosphatemia at follow-up” value in data set [5] (after 6-8 months) was “normal values of hydroxyprolinuria and alkaline phosphatemia”. The alkaline phosphatemia result in data set [5] (three patients, 4 mg or 0.5 mg per day) is given as “gradual decrease up to normal values after 3-4 months of therapeutic cycle”. In the data set with skull cells (setting [11]), the activity at 2.5 µM turned out to be 100 ± 1.6%, the activity at 25 µM worked out at 101 ± 1.5% and the activity at 250 µM amounted to 74.2 ± 4.7%. Also, in [6] (comparison in patients with primary hyperparathyroidism, Cl2 MDP data from Adami et al, 1983), the “times more active than Cl2 MDP” value is given as 20-100 times. Further, in [6] (four patients, 4-8 mg/day, 3-4 days), the calcemia and hydroxyprolinuria entry was “the decrease of calcemia has been transitory, with the values of calcemia and the hydroxyprolinuria having a tendency to return to the basal values a few days after the suspension of the drug”. In addition, the calcemia entry in data set [6] (one case with border line calcemia, 4 mg/day for four days) was “has not caused any variation in the calcemia even if it is accompanied by a persistent reduction in the calcemia”. Besides, the calcemia result in data set [6] (seven patients with very elevated calcemia, venous infusion) was “a drastic reduction of calcemia was achieved up to normal values in five of the patients”. The hydroxyprolinuria result in data set [6] (simultaneous with decrease of calcemia) was “rapid and parallel decrease of hydroxyprolinuria”. Moreover, the calcemia result in [6] (three cases, 25 mg/day for seven days) is “normalization of calcemia up to the day of surgical intervention”. In data set [7] (human, in vivo), the fever after administration result is “not been followed by fever”. Moreover, in [7] (setting [12]), the effect of treatment entry is on record as “surprisingly every effective” and the “period of remission of the symptoms” value was “surprisingly long”.

On to `NCCCCC(O)(P(=O)(O)O)P(=O)(O)O` [AHPE BP, 5-amino-1-hydroxypentan-1,1-biphosphonic acid], for which the “product Ca++ × Pi in solution after incubation” value is 36.7 in data set [8] (0.05 μM); 37.1 in [8] (0.25 μM); 68.6 in data set [8] (0.5 μM); 94.0 in data set [8] (2.5 μM); 97.5 in data set [8] (5.0 μM). For the same compound, the “effect on bone reabsorption, in words” value in data set [9] (rat, in vivo) was “the most active in inhibiting the bone reabsorption”. The “toxicity during the bone reabsorption experiment” value in data set [9] (s.c., 10 mg of P/kg / higher dosage) is on record as “Experiment interrupted due to acute toxicity; also recorded: a toxicity at the higher dosage”. The “Effect on the production of lactate ± S.E.M.” value in [1] (250 μM) is recorded as “dead cells”. Moreover, the activity at 2.5 µM amounted to 93.4 ± 3% in [1] (Rattus norvegicus, 16 h, 2.5 μM, read-out: Effect on the production of lactate ± S.E.M.) and 103 ± 2.8% in the data set with skull cells (Rattus norvegicus, 2.5 μM, read-out: Effect on the cellular number ± S.E.M.). Further, the activity at 25 µM in [1] (Rattus norvegicus, 16 h, 25 μM, read-out: Effect on the production of lactate ± S.E.M.) is 354 ± 27.7%; with skull cells (Rattus norvegicus, 25 μM, read-out: Effect on the cellular number ± S.E.M.) it was 42.6 ± 5.1%. Besides, the metaphysical density in [2] (0.01 mg P/kg s.c., s.c. NaCl controls 29.72) is reported as 37.85 % volume of calcified tissue; in data set [2] (0.1 mg P/kg s.c., s.c. NaCl controls 29.72) it was 50.44 % volume of calcified tissue; in data set [2] (1.0 mg P/kg s.c., s.c. NaCl controls 29.72) it was 56.47 % volume of calcified tissue; in data set [2] (2.0 mg P/kg p.o., p.o. NaCl controls 28.45), 38.70 % volume of calcified tissue. Besides, the “necrosis at the injection sites” value is “.0” in the data set on injection sites / skin (0.01 mg P/kg, 1 day); “.0” with injection sites / skin (0.01 mg P/kg, 2 day); “.0” in the data set on injection sites / skin (0.01 mg P/kg, 3 day); “.0” in the data set with injection sites / skin (0.01 mg P/kg, 4 day); “.0” in the data set on injection sites / skin (0.01 mg P/kg, 5 day); “.0” with injection sites / skin (0.01 mg P/kg, 6 day). The “necrosis at the injection sites” value in the data set with injection sites / skin (0.01 mg P/kg, 7 day) is recorded as “.0”; in the data set on injection sites / skin (0.1 mg P/kg, 1 day) it was “.0”; in the data set on injection sites / skin (0.1 mg P/kg, 2 day), “.0”; in the data set with injection sites / skin (0.1 mg P/kg, 3 day), “.0”; with injection sites / skin (0.1 mg P/kg, 4 day), “.0”; in the data set with injection sites / skin (0.1 mg P/kg, 5 day) it was “.0”. Moreover, the “necrosis at the injection sites” value in the data set with injection sites / skin (0.1 mg P/kg, 6 day) is on record as “.0”; with injection sites / skin (0.1 mg P/kg, 7 day) it was “.0”; in the data set with injection sites / skin (1 mg P/kg, 1 day), “.0”; in the data set on injection sites / skin (1 mg P/kg, 2 day) it was “.0”; in the data set with injection sites / skin (1 mg P/kg, 3 day), “.0”; with injection sites / skin (1 mg P/kg, 4 day), “.0”. The “necrosis at the injection sites” value with injection sites / skin (1 mg P/kg, 5 day) is “.0”; in the data set with injection sites / skin (1 mg P/kg, 6 day), “.0”; with injection sites / skin (1 mg P/kg, 7 day), “.0”; with injection sites / skin (10 mg P/kg, 1 day), “xxx”; with injection sites / skin (10 mg P/kg, 2 day), “xxx”. Besides, the LD50 in “in vivo” (ip) was determined as 75 mg/kg; in the data set “in vivo” (iv), 85 mg/kg; in “in vivo” (po, os), 1500 mg/kg. Moreover, the “Effect on the cellular number ± S.E.M.” value with skull cells (250 μM) is given as “dead cells”.
